US10875875B2, “Propionic acid derivatives and methods of use thereof” (Aviara Pharmaceuticals, Inc., priority 2017, dated 2020)

Assays:
α4β7 = target: T1, α4β7 (Homo sapiens, UniProt P13612+P26010); test: α4β7 integrin inhibition, IC50; assay type: binding
T1 sequence (P13612 34-1032): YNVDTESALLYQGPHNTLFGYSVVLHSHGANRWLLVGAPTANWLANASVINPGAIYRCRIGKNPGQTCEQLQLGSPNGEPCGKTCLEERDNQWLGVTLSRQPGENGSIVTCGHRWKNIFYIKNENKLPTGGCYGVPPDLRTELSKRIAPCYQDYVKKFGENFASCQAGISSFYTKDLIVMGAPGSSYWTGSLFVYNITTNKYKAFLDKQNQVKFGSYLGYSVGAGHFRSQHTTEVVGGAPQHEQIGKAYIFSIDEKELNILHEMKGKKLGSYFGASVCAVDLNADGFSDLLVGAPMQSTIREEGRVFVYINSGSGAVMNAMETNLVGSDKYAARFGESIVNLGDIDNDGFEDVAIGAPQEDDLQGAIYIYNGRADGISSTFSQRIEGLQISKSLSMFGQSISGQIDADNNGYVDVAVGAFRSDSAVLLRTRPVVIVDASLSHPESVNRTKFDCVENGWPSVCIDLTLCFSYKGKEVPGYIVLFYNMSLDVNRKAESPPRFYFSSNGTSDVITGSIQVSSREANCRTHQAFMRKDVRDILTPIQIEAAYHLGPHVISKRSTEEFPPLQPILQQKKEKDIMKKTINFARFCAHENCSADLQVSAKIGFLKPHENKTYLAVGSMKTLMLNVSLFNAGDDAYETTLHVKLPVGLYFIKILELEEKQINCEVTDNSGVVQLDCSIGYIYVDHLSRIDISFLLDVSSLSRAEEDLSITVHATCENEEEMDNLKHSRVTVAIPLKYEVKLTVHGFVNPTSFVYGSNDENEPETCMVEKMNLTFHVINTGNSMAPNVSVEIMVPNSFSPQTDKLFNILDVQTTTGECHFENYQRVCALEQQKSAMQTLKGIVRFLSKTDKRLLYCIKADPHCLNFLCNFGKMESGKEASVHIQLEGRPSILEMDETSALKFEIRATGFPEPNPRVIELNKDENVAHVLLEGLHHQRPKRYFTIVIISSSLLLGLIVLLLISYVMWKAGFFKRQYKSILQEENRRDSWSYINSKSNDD
T1 sequence (P26010 20-798): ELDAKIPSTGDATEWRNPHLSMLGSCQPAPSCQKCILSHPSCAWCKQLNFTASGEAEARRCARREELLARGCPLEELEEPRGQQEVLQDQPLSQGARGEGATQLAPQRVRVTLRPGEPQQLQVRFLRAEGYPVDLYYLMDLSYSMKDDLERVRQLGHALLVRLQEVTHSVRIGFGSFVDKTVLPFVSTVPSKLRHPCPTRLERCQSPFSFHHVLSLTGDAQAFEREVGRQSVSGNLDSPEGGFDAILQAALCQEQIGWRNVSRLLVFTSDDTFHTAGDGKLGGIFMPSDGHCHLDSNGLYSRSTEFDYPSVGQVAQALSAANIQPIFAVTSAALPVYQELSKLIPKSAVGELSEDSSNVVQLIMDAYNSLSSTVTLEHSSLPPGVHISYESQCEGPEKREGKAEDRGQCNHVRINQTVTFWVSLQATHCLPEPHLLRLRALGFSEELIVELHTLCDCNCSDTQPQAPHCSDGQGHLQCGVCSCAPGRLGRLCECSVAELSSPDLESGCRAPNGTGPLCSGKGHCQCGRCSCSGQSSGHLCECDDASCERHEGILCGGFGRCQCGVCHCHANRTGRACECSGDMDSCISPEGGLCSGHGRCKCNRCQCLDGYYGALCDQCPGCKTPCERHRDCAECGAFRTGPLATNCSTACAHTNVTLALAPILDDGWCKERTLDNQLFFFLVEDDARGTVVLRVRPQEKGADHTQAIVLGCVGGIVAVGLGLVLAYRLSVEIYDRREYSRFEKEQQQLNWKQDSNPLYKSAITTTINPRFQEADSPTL

α4β1 = α4β1 (Homo sapiens, UniProt P05556+P13612); test: α4β1 integrin inhibition, IC50; assay type: binding; details: read-out: α4β1 IC50
Chain of α4β1 (P05556 21-798, one chain of several): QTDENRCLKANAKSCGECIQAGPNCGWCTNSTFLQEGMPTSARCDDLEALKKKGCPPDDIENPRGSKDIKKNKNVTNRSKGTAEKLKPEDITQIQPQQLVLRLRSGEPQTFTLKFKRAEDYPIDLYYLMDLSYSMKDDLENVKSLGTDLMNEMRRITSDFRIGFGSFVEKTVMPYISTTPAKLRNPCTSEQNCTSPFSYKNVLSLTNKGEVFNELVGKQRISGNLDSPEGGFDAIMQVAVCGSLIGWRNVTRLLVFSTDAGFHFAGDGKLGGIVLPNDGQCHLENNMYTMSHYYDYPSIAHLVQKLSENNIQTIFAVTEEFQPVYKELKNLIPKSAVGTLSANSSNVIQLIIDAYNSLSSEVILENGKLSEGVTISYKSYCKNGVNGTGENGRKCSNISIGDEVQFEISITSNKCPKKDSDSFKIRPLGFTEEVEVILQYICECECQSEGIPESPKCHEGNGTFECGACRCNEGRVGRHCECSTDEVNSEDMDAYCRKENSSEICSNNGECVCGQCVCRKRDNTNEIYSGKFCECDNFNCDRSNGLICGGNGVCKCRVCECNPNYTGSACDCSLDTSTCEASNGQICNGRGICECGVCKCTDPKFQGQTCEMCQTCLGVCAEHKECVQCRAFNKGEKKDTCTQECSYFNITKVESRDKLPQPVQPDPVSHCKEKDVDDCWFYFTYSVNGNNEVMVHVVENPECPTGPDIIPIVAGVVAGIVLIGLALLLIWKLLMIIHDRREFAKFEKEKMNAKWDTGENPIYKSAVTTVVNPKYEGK

Row | SMILES | IC50 (α4β7) | IC50 (α4β1)
1 | Cc1cn(C)c(=O)c(NC(=O)N[C@@H](CC(=O)O)c2cccc(-c3c(C)cccc3C)c2)c1O [1-470, sodium (S)-3-(3-(1,5-dimethyl-4-oxido-2-oxo-1,2-dihydropyridin-3-yl)ureido)-3-(2′,6′-dimethylbiphenyl-3-yl)propanoate] | < 0.2 µM | < 0.02 µM
2 | Cn1ccc(O)c(NC(=O)N[C@@H](CC(=O)O)c2cccc(-c3ccc(F)cc3F)c2)c1=O [1-488, sodium (S)-3-(2′,4′-difluorobiphenyl-3-yl)-3-(3-(1-methyl-4-oxido-2-oxo-1,2-dihydropyridin-3-yl)ureido)propanoate] | > 0.2 µM | < 0.02 µM
3 | Cc1cccc(C)c1-c1cccc([C@H](CC(=O)O)NC(=O)Nc2c(O)ccn(C)c2=O)c1 [1-502, sodium (S)-3-(2′,6′-dimethylbiphenyl-3-yl)-3-(3-(1-methyl-4-oxido-2-oxo-1,2-dihydropyridin-3-yl)ureido)propanoate] | < 0.2 µM | < 0.02 µM
4 | COc1cccc(-c2cc([C@H](CC(=O)O)NC(=O)Nc3c(O)c(C)cn(C)c3=O)ccc2OC)c1 [1-527, sodium (S)-3-(3′,6-dimethoxybiphenyl-3-yl)-3-(3-(1,5-dimethyl-4-oxido-2-oxo-1,2-dihydropyridin-3-yl)ureido)propanoate] | > 0.2 µM | < 0.02 µM
5 | Cn1ccc(O)c(NC(=O)N[C@@H](CC(=O)O)c2cccc(-c3c(Cl)cccc3Cl)c2)c1=O [1-537, sodium (S)-3-(2′,6′-dichlorobiphenyl-3-yl)-3-(3-(1-methyl-4-oxido-2-oxo-1,2-dihydropyridin-3-yl)ureido)propanoate] | < 0.2 µM | < 0.02 µM
6 | COc1cc(-c2c(C)cccc2C)cc([C@H](CC(=O)O)NC(=O)Nc2c(O)ccn(C)c2=O)c1 [1-579, sodium (S)-3-(5-methoxy-2′,6′-dimethylbiphenyl-3-yl)-3-(3-(1-methyl-4-oxido-2-oxo-1,2-dihydropyridin-3-yl)ureido)propanoate] | < 0.02 µM | < 0.02 µM
7 | COc1cc(-c2c(C)cccc2C)cc([C@H](CC(=O)O)NC(=O)Nc2c(O)cc(C)n(C)c2=O)c1 [1-580, sodium (S)-3-(3-(1,6-dimethyl-4-oxido-2-oxo-1,2-dihydropyridin-3-yl)ureido)-3-(5-methoxy-2′,6′-dimethylbiphenyl-3-yl)propanoate] | < 0.02 µM | < 0.02 µM
8 | COc1cccc(-c2cc(C)cc([C@H](CC(=O)O)NC(=O)Nc3c(O)ccn(C)c3=O)c2)c1 [1-582, sodium (S)-3-(3′-methoxy-5-methylbiphenyl-3-yl)-3-(3-(1-methyl-4-oxido-2-oxo-1,2-dihydropyridin-3-yl)ureido)propanoate] | < 0.2 µM | < 0.02 µM
9 | O=C(O)C[C@H](NC(=O)Nc1c(O)cc2n(c1=O)CCC2)c1cccc(-c2ccc(F)cc2F)c1 [1-629, sodium (S)-3-(2′,4′-difluorobiphenyl-3-yl)-3-(3-(7-oxido-5-oxo-1,2,3,5-tetrahydroindolizin-6-yl)ureido)propanoate] | > 0.2 µM | < 0.02 µM

Second part, the compound after the results:

Row | IC50 (α4β7) | IC50 (α4β1) | SMILES
10 | > 0.2 µM | < 0.02 µM | Cc1cc(O)c(NC(=O)N[C@@H](CC(=O)O)c2cccc(-c3ccc(F)cc3F)c2)c(=O)n1C [1-487, sodium (S)-3-(2′,4′-difluorobiphenyl-3-yl)-3-(3-(1,6-dimethyl-4-oxido-2-oxo-1,2-dihydropyridin-3-yl)ureido)propanoate]
11 | < 0.2 µM | < 0.02 µM | COc1ccc([C@H](CC(=O)O)NC(=O)Nc2c(O)ccn(C)c2=O)cc1-c1c(C)cccc1C [1-533, sodium (S)-3-(6-methoxy-2′,6′-dimethylbiphenyl-3-yl)-3-(3-(1-methyl-4-oxido-2-oxo-1,2-dihydropyridin-3-yl)ureido)propanoate]
12 | < 0.2 µM | < 0.02 µM | Cc1cccc(C)c1-c1cccc([C@H](CC(=O)O)NC(=O)Nc2c(O)cc(C)n(C)c2=O)c1 [1-550, sodium (S)-3-(3-(1,6-dimethyl-4-oxido-2-oxo-1,2-dihydropyridin-3-yl)ureido)-3-(2′,6′-dimethylbiphenyl-3-yl)propanoate]
13 | > 0.2 µM | < 0.02 µM | Cc1noc(C)c1-c1cccc([C@H](CC(=O)O)NC(=O)Nc2c(O)ccn(C)c2=O)c1 [1-560, sodium (S)-3-(3-(3,5-dimethylisoxazol-4-yl)phenyl)-3-(3-(1-methyl-4-oxido-2-oxo-1,2-dihydropyridin-3-yl)ureido)propanoate]
14 | < 0.02 µM | < 0.02 µM | Cc1cccc(C)c1-c1cc([C@H](CC(=O)O)NC(=O)Nc2c(O)ccn(C)c2=O)ccc1F [1-561, sodium (S)-3-(6-fluoro-2′,6′-dimethylbiphenyl-3-yl)-3-(3-(1-methyl-4-oxido-2-oxo-1,2-dihydropyridin-3-yl)ureido)propanoate]
15 | > 0.2 µM | < 0.02 µM | Cn1ccc(O)c(NC(=O)N[C@@H](CC(=O)O)c2ccc(-c3ccc(F)cc3F)s2)c1=O [1-562, sodium (S)-3-(5-(2,4-difluorophenyl)thiophen-2-yl)-3-(3-(1-methyl-4-oxido-2-oxo-1,2-dihydropyridin-3-yl)ureido)propanoate]
16 | > 0.2 µM | < 0.02 µM | Cc1cc(-c2cccc(OC(F)(F)F)c2)cc([C@H](CC(=O)O)NC(=O)Nc2c(O)ccn(C)c2=O)c1 [1-572, sodium (S)-3-(5-methyl-3′-(trifluoromethoxy)biphenyl-3-yl)-3-(3-(1-methyl-4-oxido-2-oxo-1,2-dihydropyridin-3-yl)ureido)propanoate]
17 | < 0.02 µM | < 0.02 µM | Cc1cccc(C)c1-c1cccc([C@H](CC(=O)O)NC(=O)Nc2c(O)cc3n(c2=O)CCC3)c1 [1-583, sodium (S)-3-(2′,6′-dimethylbiphenyl-3-yl)-3-(3-(7-oxido-5-oxo-1,2,3,5-tetrahydroindolizin-6-yl)ureido)propanoate]
18 | < 0.02 µM | < 0.02 µM | Cc1cccc(C)c1-c1ccc(F)c([C@H](CC(=O)O)NC(=O)Nc2c(O)ccn(C)c2=O)c1 [1-590, sodium (S)-3-(4-fluoro-2′,6′-dimethylbiphenyl-3-yl)-3-(3-(1-methyl-4-oxido-2-oxo-1,2-dihydropyridin-3-yl)ureido)propanoate]
19 | – | < 0.2 µM | Cc1cn(C)c(=O)c(NC(=O)N[C@@H](CC(=O)O)c2ccc(-c3ccccc3)cc2)c1O [1-643, sodium (S)-3-(biphenyl-4-yl)-3-(3-(1,5-dimethyl-4-oxido-2-oxo-1,2-dihydropyridin-3-yl)ureido)propanoate]
20 | – | < 0.2 µM | COc1ccc(-c2cccc([C@H](CC(=O)O)NC(=O)Nc3c(O)c(C)cn(C)c3=O)c2)cc1 [1-645, sodium (S)-3-(3-(1,5-dimethyl-4-oxido-2-oxo-1,2-dihydropyridin-3-yl)ureido)-3-(4′-methoxybiphenyl-3-yl)propanoate]
21 | – | < 0.02 µM | Cn1ccc(O)c(NC(=O)N[C@@H](CC(=O)O)c2cccc(-c3cnccn3)c2)c1=O [15-2, sodium (S)-3-(3-(1-methyl-4-oxido-2-oxo-1,2-dihydropyridin-3-yl)ureido)-3-(3-(pyrazin-2-yl)phenyl)propanoate]
22 | – | < 0.02 µM | COc1cccc(-c2cccc([C@H](CC(=O)O)NC(=O)Nc3c(O)ccn(C)c3=O)c2)n1 [sodium (S)-3-(3-(6-methoxypyridin-2-yl)phenyl)-3-(3-(1-methyl-4-oxido-2-oxo-1,2-dihydropyridin-3-yl)ureido)propanoate]
